Measurements from patent publication US9890156B2, “Bicyclic heterocycles as FGFR4 inhibitors” (Incyte Corporation, priority 2015, dated 2018).
Like-named read-outs stand apart in the source and are kept apart here.

Legend:
FGFR1 = FGFR1 (Homo sapiens (Human), UniProt P11362); test: FGFR Enzymatic Assay (FRET, peptide phosphorylation), FGFR1; conditions: read-out: FGFR1 IC50; pre-incubated for 4 hours; ATP 210 uM
FGFR2 = FGFR2 (Homo sapiens (Human), UniProt P21802); test: FGFR Enzymatic Assay (FRET, peptide phosphorylation), FGFR2; conditions: read-out: FGFR2 IC50; pre-incubated for 4 hours; ATP 100 uM
FGFR2, sequence (P21802 22-821): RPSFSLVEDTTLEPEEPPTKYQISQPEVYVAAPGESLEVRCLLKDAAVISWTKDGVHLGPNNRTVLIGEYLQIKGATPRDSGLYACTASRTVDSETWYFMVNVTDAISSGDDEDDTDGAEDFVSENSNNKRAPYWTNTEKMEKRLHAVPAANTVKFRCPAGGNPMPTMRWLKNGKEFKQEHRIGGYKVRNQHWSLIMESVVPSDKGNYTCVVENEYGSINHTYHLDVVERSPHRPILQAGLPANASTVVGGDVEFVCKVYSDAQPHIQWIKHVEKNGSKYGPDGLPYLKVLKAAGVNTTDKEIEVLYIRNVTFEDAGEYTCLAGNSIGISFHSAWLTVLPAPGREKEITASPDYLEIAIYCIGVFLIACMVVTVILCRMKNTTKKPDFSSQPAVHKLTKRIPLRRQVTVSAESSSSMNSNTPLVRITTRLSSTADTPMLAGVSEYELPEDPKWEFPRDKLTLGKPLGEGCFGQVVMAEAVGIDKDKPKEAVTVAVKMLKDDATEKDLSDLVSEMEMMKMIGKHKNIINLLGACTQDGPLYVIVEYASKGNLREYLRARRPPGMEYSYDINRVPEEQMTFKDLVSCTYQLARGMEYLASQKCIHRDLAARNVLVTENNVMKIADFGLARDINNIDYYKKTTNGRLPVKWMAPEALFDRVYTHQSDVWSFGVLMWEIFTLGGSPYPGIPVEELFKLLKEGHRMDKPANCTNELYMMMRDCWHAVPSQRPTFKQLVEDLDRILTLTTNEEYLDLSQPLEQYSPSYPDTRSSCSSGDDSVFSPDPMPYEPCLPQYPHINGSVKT

FGFR3 = FGFR3 (Homo sapiens (Human), UniProt P22607); test: FGFR Enzymatic Assay (FRET, peptide phosphorylation), FGFR3; type: biochemical; conditions: pre-incubated for 4 hours; ATP 140 μM
FGFR3, sequence (P22607 23-806): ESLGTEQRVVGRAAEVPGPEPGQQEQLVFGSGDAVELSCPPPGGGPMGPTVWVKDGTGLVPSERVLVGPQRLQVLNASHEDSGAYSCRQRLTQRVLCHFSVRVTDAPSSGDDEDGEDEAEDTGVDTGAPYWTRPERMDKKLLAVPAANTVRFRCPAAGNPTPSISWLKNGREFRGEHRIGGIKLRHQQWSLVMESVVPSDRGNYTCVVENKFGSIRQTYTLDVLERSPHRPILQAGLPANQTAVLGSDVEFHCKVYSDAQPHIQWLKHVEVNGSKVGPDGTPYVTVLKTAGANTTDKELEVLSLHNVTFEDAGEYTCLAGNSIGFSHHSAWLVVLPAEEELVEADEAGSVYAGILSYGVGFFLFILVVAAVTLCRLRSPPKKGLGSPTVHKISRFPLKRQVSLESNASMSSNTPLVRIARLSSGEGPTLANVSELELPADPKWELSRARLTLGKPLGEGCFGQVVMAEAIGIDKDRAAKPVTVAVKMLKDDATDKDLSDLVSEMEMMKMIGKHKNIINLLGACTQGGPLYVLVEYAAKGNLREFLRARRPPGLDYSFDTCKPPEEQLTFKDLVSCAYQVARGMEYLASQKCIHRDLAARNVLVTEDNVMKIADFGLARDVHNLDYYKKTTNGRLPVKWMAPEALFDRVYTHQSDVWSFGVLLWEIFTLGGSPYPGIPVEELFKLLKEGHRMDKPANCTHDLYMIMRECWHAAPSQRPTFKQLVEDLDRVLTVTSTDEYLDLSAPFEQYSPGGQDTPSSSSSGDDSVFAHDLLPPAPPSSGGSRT

FGFR4 = FGFR4 (Homo sapiens (Human), UniProt P22455); test: FGFR Enzymatic Assay (FRET, peptide phosphorylation), FGFR4
FGFR4, sequence (P22455 22-802): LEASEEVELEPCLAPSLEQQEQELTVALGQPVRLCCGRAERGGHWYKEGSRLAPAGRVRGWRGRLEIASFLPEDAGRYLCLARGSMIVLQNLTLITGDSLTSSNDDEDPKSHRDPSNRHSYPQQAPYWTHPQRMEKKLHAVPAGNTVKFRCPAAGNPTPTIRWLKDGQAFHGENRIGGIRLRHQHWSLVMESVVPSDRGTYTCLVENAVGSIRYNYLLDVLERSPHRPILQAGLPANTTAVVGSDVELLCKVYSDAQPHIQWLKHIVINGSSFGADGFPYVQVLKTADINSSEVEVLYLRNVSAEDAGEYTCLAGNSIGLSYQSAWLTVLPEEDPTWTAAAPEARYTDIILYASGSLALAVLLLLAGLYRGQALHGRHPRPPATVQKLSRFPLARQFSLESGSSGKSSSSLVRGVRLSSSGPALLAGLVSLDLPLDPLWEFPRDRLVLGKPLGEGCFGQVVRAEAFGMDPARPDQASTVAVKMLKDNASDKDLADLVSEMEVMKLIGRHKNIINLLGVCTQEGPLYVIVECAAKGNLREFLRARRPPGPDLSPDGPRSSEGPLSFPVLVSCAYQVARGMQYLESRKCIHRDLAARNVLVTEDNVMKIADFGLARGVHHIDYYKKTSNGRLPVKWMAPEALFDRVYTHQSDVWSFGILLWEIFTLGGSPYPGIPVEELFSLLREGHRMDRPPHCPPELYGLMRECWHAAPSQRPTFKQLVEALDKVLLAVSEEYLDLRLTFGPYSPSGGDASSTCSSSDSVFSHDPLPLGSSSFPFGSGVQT

[1] = read-out: FGFR4 IC50, pre-incubated for 4 hours, ATP 600 uM

FGFR1, sequence (P11362 22-822): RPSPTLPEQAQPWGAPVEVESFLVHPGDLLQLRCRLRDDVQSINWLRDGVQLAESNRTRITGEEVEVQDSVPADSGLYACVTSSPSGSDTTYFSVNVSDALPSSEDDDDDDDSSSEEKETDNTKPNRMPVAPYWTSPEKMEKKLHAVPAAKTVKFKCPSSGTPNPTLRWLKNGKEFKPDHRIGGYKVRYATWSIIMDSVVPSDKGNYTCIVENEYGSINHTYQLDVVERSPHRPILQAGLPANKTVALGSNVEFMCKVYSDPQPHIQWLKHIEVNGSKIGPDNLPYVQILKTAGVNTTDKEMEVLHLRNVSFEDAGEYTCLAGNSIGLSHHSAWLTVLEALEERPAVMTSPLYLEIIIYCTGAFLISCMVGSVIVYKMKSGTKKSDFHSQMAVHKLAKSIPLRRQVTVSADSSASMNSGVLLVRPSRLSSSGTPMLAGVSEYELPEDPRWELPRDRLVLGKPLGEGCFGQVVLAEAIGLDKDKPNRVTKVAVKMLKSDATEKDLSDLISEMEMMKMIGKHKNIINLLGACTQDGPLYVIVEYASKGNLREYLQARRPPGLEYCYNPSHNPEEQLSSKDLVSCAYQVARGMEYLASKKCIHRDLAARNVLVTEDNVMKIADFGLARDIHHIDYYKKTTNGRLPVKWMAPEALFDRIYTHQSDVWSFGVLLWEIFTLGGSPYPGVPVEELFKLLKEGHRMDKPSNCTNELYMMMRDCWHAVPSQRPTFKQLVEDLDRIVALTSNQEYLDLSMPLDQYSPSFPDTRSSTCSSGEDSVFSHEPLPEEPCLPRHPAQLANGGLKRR

Row | SMILES | IC50 (FGFR1) | IC50 (FGFR2) | IC50 (FGFR3) | IC50 (FGFR4; [1]) | IC50 (FGFR4)
2 | C=CC(=O)NCc1cc2c(cn1)CN(c1c(F)c(OC)cc(OC)c1F)C(=O)N2c1ccncc1 [Example 26, N-((3-(2,6-difluoro-3,5-dimethoxyphenyl)-2-oxo-1-(pyridin-4-yl)-1,2,3,4-tetrahydropyrido[4,3-d]pyrimidin-7-yl)methyl)acrylamide] | > 200 nM | > 200 nM | > 200 nM |  | 10 to 30 nM
3 | C=CC(=O)NCc1cc2c(cn1)CN(c1c(F)c(OC)cc(OC)c1F)C(=O)N2C[C@@H]1CCOC1 [Example 31, (S)—N-((3-(2,6-difluoro-3,5-dimethoxyphenyl)-2-oxo-1-((tetrahydrofuran-3-yl)methyl)-1,2,3,4-tetrahydropyrido[4,3-d]pyrimidin-7-yl)methyl)acrylamide] | > 200 nM | > 200 nM | > 200 nM | < 10 nM | 
5 | C=CC(=O)NCc1cc2c(cn1)CN(c1c(F)c(OC)cc(OC)c1F)C(=O)N2CC1CCN(C(=O)NC(C)C)CC1 [Example 34, 4-((7-(acrylamidomethyl)-3-(2,6-difluoro-3,5-dimethoxyphenyl)-2-oxo-3,4-dihydropyrido[4,3-d]pyrimidin-1(2H)-yl)methyl)-N-isopropylpiperidine-1-carboxamide] | > 200 nM | > 200 nM | > 200 nM | < 10 nM | 
6 | C=CC(=O)NCc1cc2c(cn1)CN(c1c(F)c(OC)cc(OC)c1F)C(=O)N2CC1CCN(S(C)(=O)=O)CC1 [Example 35, N-((3-(2,6-difluoro-3,5-dimethoxyphenyl)-1-((1-(methylsulfonyl)piperidin-4-yl)methyl)-2-oxo-1,2,3,4-tetrahydropyrido[4,3-d]pyrimidin-7-yl)methyl)acrylamide] | > 200 nM | > 200 nM | > 200 nM | < 10 nM | 
7 | C=CC(=O)NCc1cc2c(cn1)CN(c1c(Cl)c(OC)cc(OC)c1Cl)C(=O)N2CC [Example 36, N-((3-(2,6-dichloro-3,5-dimethoxyphenyl)-1-ethyl-2-oxo-1,2,3,4-tetrahydropyrido[4,3-d]pyrimidin-7-yl)methyl)acrylamide] | > 200 nM | > 200 nM | > 200 nM | < 10 nM | 
8 | C=CC(=O)NCc1ncc2c(c1C)C1(CC1)C(=O)N(c1c(F)c(OC)cc(OC)c1F)C2 [Example 37, N-((2′-(2,6-difluoro-3,5-dimethoxyphenyl)-5′-methyl-3′-oxo-2′,3′-dihydro-1′H-spiro[cyclopropane-1,4′-[2,7]naphthyridine]-6′-yl)methyl)acrylamide] | > 200 nM | > 200 nM | > 200 nM |  | 10 to 30 nM

Second part, the compound after the results:

Row | IC50 (FGFR1) | IC50 (FGFR2) | IC50 (FGFR3) | IC50 (FGFR4; [1]) | IC50 (FGFR4) | SMILES
9 | > 200 nM | > 200 nM | > 200 nM | < 10 nM |  | C=CC(=O)NCc1cc2c(cn1)CN(c1c(F)c(OC)cc(OC)c1F)C(=O)N2CC#N [Example 20, N-((1-(cyanomethyl)-3-(2,6-difluoro-3,5-dimethoxyphenyl)-2-oxo-1,2,3,4-tetrahydropyrido[4,3-d]pyrimidin-7-yl)methyl)acrylamide]
10 | > 200 nM | > 200 nM | > 200 nM | < 10 nM |  | C=CC(=O)NCc1cc2c(cn1)CN(c1c(F)c(OC)cc(OC)c1F)C(=O)N2CC(F)(F)F [Example 21, N-((3-(2,6-difluoro-3,5-dimethoxyphenyl)-2-oxo-1-(2,2,2-trifluoroethyl)-1,2,3,4-tetrahydropyrido[4,3-d]pyrimidin-7-yl)methyl)acrylamide]
11 | > 200 nM | > 200 nM | > 200 nM |  | 10 to 30 nM | C=CC(=O)NCc1cc2c(cn1)CN(c1c(F)c(OC)cc(OC)c1F)C(=O)N2C [Example 22, N-((3-(2,6-difluoro-3,5-dimethoxyphenyl)-1-methyl-2-oxo-1,2,3,4-tetrahydropyrido[4,3-d]pyrimidin-7-yl)methyl)acrylamide]
12 | > 200 nM | > 200 nM | > 200 nM |  | 10 to 30 nM | C=CC(=O)NCc1cc2c(cn1)CN(c1c(F)c(OC)cc(OC)c1F)C(=O)N2C1CCC1 [Example 25, N-((1-cyclobutyl-3-(2,6-difluoro-3,5-dimethoxyphenyl)-2-oxo-1,2,3,4-tetrahydropyrido[4,3-d]pyrimidin-7-yl)methyl)acrylamide]
13 | > 200 nM | > 200 nM | > 200 nM | < 10 nM |  | C=CC(=O)NCc1cc2c(cn1)CN(c1c(F)c(OC)cc(OC)c1F)C(=O)N2CCF [Example 27, N-((3-(2,6-difluoro-3,5-dimethoxyphenyl)-1-(2-fluoroethyl)-2-oxo-1,2,3,4-tetrahydropyrido[4,3-d]pyrimidin-7-yl)methyl)acrylamide]
